Data as given in patent US6511989B2, “Acylaminoalkyl-substituted benzenesulfonamide derivatives, their preparation, their use and pharmaceutical preparations comprising them” (Aventis Pharma Deutschland GmbH, priority 2000, dated 2003).

System: chloroform-induced ventricular fibrillation in the mouse
Experiment: Chloroform-induced ventricular fibrillation in the mouse
Type: in vivo
Conditions: 3 mg/kg i.p., 30 min before chloroform anesthesia; untreated control 100%
Description: Chloroform-induced Ventricular Fibrillation in the Mouse (Action in the Case of Vagal Dysfunction)
Hypoactivity of the vagal nervous system leads to hyperactivity of the sympathetic nervous system. Damages to health that result from an inequilibrium of the autonomic nervous system when the dysfunction affects the heart include the weakening of the myocardial contractile force and fatal cardiac arrhythmias such as ventricular fibrillation. The action of the test compounds was investigated in the model of chloroform-induced ventricular fibrillation in the mouse (see J. W. Lawson, Antiarrhythmic activity of some isoquinoline derivatives determined by a rapid screening procedure in the mouse; J. Pharmacol. Exp. Ther. 160 (1968) 22).
The test compound was dissolved in a mixture of dimethyl sulfoxide (DMSO) and 10 percent sodium hydrogencarbonate solution and administered intraperitoneally (i.p.). The dose was 3 mg/kg. 30 min later, the mouse was anesthetized with chloroform in a beaker. As soon as respiratory arrest had occurred under deep anesthesia (toxic stage of anesthesia), the thorax of the animal was opened using a pair of scissors and the heartbeat was visually inspected. It can be determined here at a glance whether the heart is beating, fibrillating, or has stopped. […]

With `COc1ccc(CCNC(=O)C2=CCCCC2)cc1S(=O)(=O)NC(=S)NC1CCCCC1` [Example 21, 1-[5-(2-(1-Cyclohex-1-enecarboxamido)ethyl)-2-methoxyphenylsulfonyl]-3-cyclohexyl-thiourea] as the compound, how does the “Fibrillation ratio (in %)” value read?
The value was 70%.

With `COc1ccc(CCNC(=O)C2=CCCCC2)cc1S(=O)(=O)NC(=S)NC(C)C` [Example 20, 1-[5-(2-(1-Cyclohex-1-enecarboxamido)ethyl)-2-methoxyphenylsulfonyl]-3-isopropyl-thiourea] as the compound, how does the “Fibrillation ratio (in %)” value read?
Its value is 70%.

Target: hSUR1/hKir6.2 (Homo sapiens, UniProt Q09428+Q14654)
Experiment: Action on hSUR1/hKir6.2-transfected CHO cells (membrane potential, DIBAC4 fluorescence, FLIPR)
Type: cell-based
Conditions: 10 μM; CHO cells activated with diaxozide
Description: Action on hSUR1/hKir6.2-transfected CHO Cells (Hypoglycemic Action)
The target organ of these compounds is the […] of the pancreas where they block ATP-sensitive potassium channels and produce a release of the hypoglycemic hormone insulin by influencing the electrical potential of the cell membrane.
The extent of this depolarization of the cell membrane, which is caused by the compounds according to the invention, was investigated on CHO cells that were transfected with the cloned components of human pancreatic ATP-sensitive potassium channels, hSUR1, and hKir6.2, and activated by pretreatment with diaxozide, an opener of ATP-sensitive potassium channels. The potency of a compound with respect to the membrane potential of these transfected and activated CHO cells is a measure of the hypoglycemic potential of this compound.
On the day of measurement, the microtiter plates were washed three times with PBS (physiological buffer solution). In the last washing step, 90 μl remained in each well. The cells were then loaded with the fluorescent dye DIBAC4 (Molecular Probes, Portland, Oreg., USA) by addition of 90 μl of a 10-micromolar solution of DIBAC4 in PBS and of 90 μl of a 400 micromolar solution of diaxozide in PBS to each well. After an incubation time of 30 min at 37° C., the microtiter plates were then transferred to a fluorescent microtiter plate reader (FLIPR; Molecular Devices, Sunnyvale, Calif., USA). The cells were stimulated by means of an argon laser (Innova 90; Coherent, Santa Clara, Calif., USA) at a wavelength of 488 nm and the fluorescence emission was measured by means of a CCD camera. The measurement of the membrane potential began after 4 min by addition of 20 μl of a solution of the test compound or of the control solution to each well, the resulting fluorescence emission being measured every 20 seconds for a period of 20 min. The data shown are mean values of at least 4 experiments.

hSUR1/hKir6.2, sequence (Q09428 whole entry): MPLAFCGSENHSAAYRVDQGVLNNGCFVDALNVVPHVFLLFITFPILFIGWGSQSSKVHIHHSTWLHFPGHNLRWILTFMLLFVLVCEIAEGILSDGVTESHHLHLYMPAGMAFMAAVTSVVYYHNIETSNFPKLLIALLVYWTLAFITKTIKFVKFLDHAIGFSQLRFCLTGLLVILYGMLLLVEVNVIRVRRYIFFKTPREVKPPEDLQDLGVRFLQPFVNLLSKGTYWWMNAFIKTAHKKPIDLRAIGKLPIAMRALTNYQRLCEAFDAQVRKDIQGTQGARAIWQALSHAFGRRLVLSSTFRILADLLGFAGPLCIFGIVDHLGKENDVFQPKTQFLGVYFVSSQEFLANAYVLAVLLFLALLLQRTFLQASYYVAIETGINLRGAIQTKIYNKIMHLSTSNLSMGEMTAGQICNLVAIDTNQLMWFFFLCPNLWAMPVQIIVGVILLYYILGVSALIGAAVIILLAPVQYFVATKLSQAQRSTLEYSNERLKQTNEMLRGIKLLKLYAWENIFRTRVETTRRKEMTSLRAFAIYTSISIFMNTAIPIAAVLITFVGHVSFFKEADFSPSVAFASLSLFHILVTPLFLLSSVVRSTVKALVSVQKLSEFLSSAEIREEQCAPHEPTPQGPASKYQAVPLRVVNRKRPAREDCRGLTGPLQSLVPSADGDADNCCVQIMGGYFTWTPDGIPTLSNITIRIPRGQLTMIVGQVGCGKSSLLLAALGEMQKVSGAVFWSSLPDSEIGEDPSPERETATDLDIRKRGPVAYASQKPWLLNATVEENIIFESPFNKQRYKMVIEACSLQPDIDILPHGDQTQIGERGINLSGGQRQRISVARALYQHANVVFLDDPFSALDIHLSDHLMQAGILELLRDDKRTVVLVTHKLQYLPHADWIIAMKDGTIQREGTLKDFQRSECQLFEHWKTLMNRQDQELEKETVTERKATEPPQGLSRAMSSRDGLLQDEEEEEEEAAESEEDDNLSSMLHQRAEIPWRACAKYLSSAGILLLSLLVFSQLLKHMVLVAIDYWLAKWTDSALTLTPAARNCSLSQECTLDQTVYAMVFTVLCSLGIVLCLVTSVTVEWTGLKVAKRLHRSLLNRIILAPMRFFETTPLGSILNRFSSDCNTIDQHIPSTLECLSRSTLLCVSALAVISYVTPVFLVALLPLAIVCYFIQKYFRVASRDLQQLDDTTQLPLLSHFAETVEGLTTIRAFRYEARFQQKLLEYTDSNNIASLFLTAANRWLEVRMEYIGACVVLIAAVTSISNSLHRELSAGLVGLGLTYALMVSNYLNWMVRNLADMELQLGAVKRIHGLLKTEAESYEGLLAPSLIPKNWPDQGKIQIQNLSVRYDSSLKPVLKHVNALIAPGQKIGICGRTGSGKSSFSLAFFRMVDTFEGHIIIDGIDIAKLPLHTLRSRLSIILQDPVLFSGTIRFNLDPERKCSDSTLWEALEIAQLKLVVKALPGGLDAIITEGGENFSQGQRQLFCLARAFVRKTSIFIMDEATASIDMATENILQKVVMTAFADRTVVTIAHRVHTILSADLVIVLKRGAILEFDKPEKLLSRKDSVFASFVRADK
hSUR1/hKir6.2, sequence (Q14654 whole entry): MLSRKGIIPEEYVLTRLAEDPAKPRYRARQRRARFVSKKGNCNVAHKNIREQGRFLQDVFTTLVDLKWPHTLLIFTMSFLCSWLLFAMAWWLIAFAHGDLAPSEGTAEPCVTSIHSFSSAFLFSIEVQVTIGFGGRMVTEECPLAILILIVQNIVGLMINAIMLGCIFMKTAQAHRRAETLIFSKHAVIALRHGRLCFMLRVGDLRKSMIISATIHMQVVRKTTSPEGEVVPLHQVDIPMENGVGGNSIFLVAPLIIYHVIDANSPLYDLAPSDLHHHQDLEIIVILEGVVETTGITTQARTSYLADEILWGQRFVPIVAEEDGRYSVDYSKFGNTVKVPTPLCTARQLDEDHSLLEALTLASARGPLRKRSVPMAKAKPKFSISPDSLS

For `CNC(=S)NS(=O)(=O)c1cc(CCNC(=O)c2cnc3ccccc3c2)ccc1OCCOC` [Example 2, 1-[5-(2-(3-Quinolinecarboxamido)ethyl)-2-(2-methoxyethoxy)phonylsulfonyl]-3-methyl-thiourea], which “Blockade hSUR1/hKir6.2” value is on record?
Its value is 6.1%.

Which “Blockade hSUR1/hKir6.2” value does the source give for `COc1ccc(CCNC(=O)C2=CCCCC2)cc1S(=O)(=O)NC(=S)NC(C)C` [Example 20, 1-[5-(2-(1-Cyclohex-1-enecarboxamido)ethyl)-2-methoxyphenylsulfonyl]-3-isopropyl-thiourea] here?
Its value is 38.3%.

Which “Blockade hSUR1/hKir6.2” value does the source give for `CNC(=S)NS(=O)(=O)c1cc(CCNC(=O)c2cnc3ccccc3c2)ccc1OCCOc1ccccc1` [Example 11, 1-[5-(2-(3-Quinolinecarboxamido)ethyl)-2-(2-phenoxyethoxy)phenylsulfonyl]-3-methyl-thiourea] here?
The value was 67.5%.

For `CNC(=S)NS(=O)(=O)c1cc(CCNC(=O)c2cnc3ccccc3c2)ccc1OCCOCC(F)(F)F` [Example 4, 1-[5-(2-(3-Quinolinecarboxamido)ethyl)-2-(2-(2,2,2-trifluoroethoxy)ethoxy)phenyl-sulfonyl]-3-methyl-thiourea], which “Blockade hSUR1/hKir6.2” value is on record?
The value was 69.8%.

Which “Blockade hSUR1/hKir6.2” value does the source give for `CNC(=O)NS(=O)(=O)c1cc(CCNC(=O)c2cnc3ccccc3c2)ccc1OCCOC` [Example 3, 1-[5-(2-(3-Quinolinecarboxamido)ethyl)-2-(2-methoxyethoxy)phenylsulfonyl]-3-methyl-urea] here?
Its value is 0%.

System: papillary muscle of the guinea pig
Experiment: Action potential duration on the papillary muscle of the guinea pig (hypoxia-shortened APD90)
Conditions: 2 μM; 60 min after addition; relative to shortening caused by hypoxia
Description: Action Potential Duration on the Papillary Muscle of the Guinea Pig
ATP deficiency states observed during ischemia in the cardiac muscle cell, lead to a shortening of the action potential duration (ATP=adenosine triphosphate). They are regarded as one of the causes of so-called reentry arrhythmias, which can cause sudden cardiac death. The opening of ATP-sensitive potassium channels by the lowering of the ATP level is regarded as the cause of this. For the measurement of the action potential on the papillary muscle of the guinea pig a standard microelectrode technique was employed.
Guinea pigs of both sexes were killed by a blow to the head, the hearts were removed, and the papillary muscles were separated out and suspended in an organ bath. The organ bath was rinsed with Ringer's solution (136 mmol/l of NaCl, 3.3 mmol/l of KCl, 2.5 mmol/l of CaCl2, 1.2 mmol/l of KH2PO4, 1.1 mmol/l of MgSO4, 5.0 mmol/l of glucose, 10.0 mmol/l of 1-(2-hydroxyethyl)piperazine4-(2-ethanesulfonic acid) (HEPES), pH adjusted to 7.4 with NaOH) and aerated with 100% oxygen at a temperature of 37° C. The muscle was stimulated with square-wave pulses of 1 V and 1 ms duration and a frequency of 1 Hz by means of an electrode. The action potential was derived and recorded by means of a glass microelectrode inserted intracellularly, which was filled with 3 mol/l of KCl solution. The compound to be tested was added to the Ringer's solution in a concentration of 2 μmol/l. The action potential was amplified using an amplifier from Hugo Sachs (March-Hugstetten, Germany) and stored and analyzed by means of a computer. The duration of the action potential was determined at a degree of repolarization of 90% (APD90). After an equilibration time of 30 min, the action potential shortening was produced by rinsing the papillary muscle with a hypoxic NaCl solution. The glucose was removed here, the HEPES buffer replaced by PIPES buffer (piperazine-1,4-bis(2-ethanesulfonic acid)), the pH was adjusted to 6.5 and the aeration was carried out using 100% nitrogen. After a time of 60 min, this led to a marked shortening of the APD90. After this time, the test compound was added and the relengthening of the action potential recorded after a further 60 min. The compound-caused relengthening of the APD90 was calculated as a percentage, in relation to the shortening caused by hypoxia. The test compounds were added to the bath solution as stock solution in propanediol.
The following relengthenings of the APD90 values were observed.

Which “Relengthening of the APD90 shortened by hypoxia” value (shortened to “Relengthening”) does the source give for `CNC(=S)NS(=O)(=O)c1cc(CCNC(=O)c2cnc3ccccc3c2)ccc1OCCOC` [Example 2, 1-[5-(2-(3-Quinolinecarboxamido)ethyl)-2-(2-methoxyethoxy)phonylsulfonyl]-3-methyl-thiourea] here?
Its value is 42%.

For `CNC(=S)NS(=O)(=O)c1cc(CCNC(=O)c2cnc3ccccc3c2)ccc1OCCOCC(F)(F)F` [Example 4, 1-[5-(2-(3-Quinolinecarboxamido)ethyl)-2-(2-(2,2,2-trifluoroethoxy)ethoxy)phenyl-sulfonyl]-3-methyl-thiourea], which “Relengthening” value is on record?
Its value is 69%.

For `CNC(=S)NS(=O)(=O)c1cc(CCNC(=O)C=C(C)C)ccc1OCCOC` [Example 17, 1-[5-(2-(3-Methylbut-2-eneamido)ethyl)-2-(2-methoxyethoxy)phenylsulfonyl]-3-methyl-thiourea], which “Relengthening” value is on record?
The value was 34%.

Which “Relengthening” value does the source give for `CCCOc1ccc(CCNC(=O)c2cnc3ccccc3c2)cc1S(=O)(=O)NC(=S)NC` [Example 8, 1-[5-(2-(3-Quinolinecarboxamido)ethyl)-2-propyloxyphenylsulfonyl]-3-methyl-thiourea] here?
Its value is 35%.

System: not given
Experiment: not given
Conditions: not given

For `CNC(=S)NS(=O)(=O)c1cc(CCNC(=O)c2cnc3ccccc3c2)ccc1-c1ccco1` [Example 14, 1-[5-(2-(3-Quinolinecarboxamido)ethyl)-2-(2-furyl)phenylsulfonyl]-3-methyl-thiourea], which melting point is on record?
The melting point was 155 to 156 °C.

Which melting point does the source give for `CNC(=S)NS(=O)(=O)c1cc(CCNC(=O)c2cnc3ccccc3c2)ccc1OC` [Example 1, 1-[5-(2-(3-Quinolinecarboxamido)ethyl)-2-methoxyphenylsulfonyl]-3-methyl-thiourea] here?
Its melting point is 85 °C.

With `CCCOc1ccc(CCNC(=O)c2cnc3ccccc3c2)cc1S(=O)(=O)NC(=O)NC` [Example 9] as the compound, how does the melting point read?
Its melting point is 120 °C.

With `CNC(=O)NS(=O)(=O)c1cc(CCNC(=O)C2=CCCCC2)ccc1OC` [Example 19, 1-[5-(2-(1-Cyclohex-1-enecarboxamido)ethyl)-2-methoxyphenylsulfonyl]-3-methyl-urea] as the compound, how does the melting point read?
The melting point was 175 °C.

With `CNC(=S)NS(=O)(=O)c1cc(CCNC(=O)C=C(C)C)ccc1OC` [Example 15, 1-[5-(2-(3-Methylbut-2-eneamido)ethyl)-2-methoxyphenylsulfonyl]-3-methyl-thiourea] as the compound, how does the melting point read?
Its melting point is 153 to 154 °C.

Which melting point does the source give for `CNC(=O)NS(=O)(=O)c1cc(CCNC(=O)C=C(C)C)ccc1OC` [Example 16, 1-[5-(2-(3-Methylbut-2-eneamido)ethyl)-2-methoxyphenylsulfonyl]-3-methyl-urea] here?
The melting point was 199 to 203 °C.

Which melting point does the source give for `CNC(=S)NS(=O)(=O)c1cc(CCNC(=O)C2=CCCCC2)ccc1OC` [Example 18, 1-[5-(2-(1-Cyclohex-1-enecarboxamido)ethyl)-2-methoxyphenylsulfonyl]-3-methyl-thiourea] here?
The melting point was 179 to 182 °C.

With `CNC(=S)NS(=O)(=O)c1cc(CCNC(=O)c2cnc3ccccc3c2)ccc1OCCc1ccccc1` [Example 12, 1-[5-(2-(3-Quinolinecarboxamido)ethyl)-2-(2-phenylethoxy)phenylsulfonyl]-3-methyl-thiourea] as the compound, how does the melting point read?
Its melting point is 124 °C.

For `CCOc1ccc(CCNC(=O)c2cnc3ccccc3c2)cc1S(=O)(=O)NC(=S)NC` [Example 7, 1-[5-(2-(3-Quinolinecarboxamido)ethyl)-2-ethoxyphenylsulfonyl]-3-methyl-thiourea], which melting point is on record?
Its melting point is 189 to 193 °C.

Which melting point does the source give for `CCOCCOc1ccc(CCNC(=O)c2cnc3ccccc3c2)cc1S(=O)(=O)NC(=S)NC` [Example 10, 1-[5-(2-(3-Quinolinecarboxamido)ethyl)-2-(2-ethoxyethoxy)phenylsulfonyl]-3-methyl-thiourea] here?
Its melting point is 50 to 52 °C.

For `CNC(=S)NS(=O)(=O)c1cc(CCNC(=O)c2cnc3ccccc3c2)ccc1OCCOc1ccccc1` [Example 11, 1-[5-(2-(3-Quinolinecarboxamido)ethyl)-2-(2-phenoxyethoxy)phenylsulfonyl]-3-methyl-thiourea], which melting point is on record?
Its melting point is 110 °C.

For `CNC(=S)NS(=O)(=O)c1cc(CCNC(=O)C2=CCCCC2)ccc1OCCOC` [Example 22, 1-[5-(2-(1-Cyclohex-1-enecarboxamido)ethyl)-2-(2-methoxyethoxy)phenylsulfonyl]-3-methyl-thiourea], which melting point is on record?
The melting point was 150 to 155 °C.

With `CNC(=S)NS(=O)(=O)c1cc(CCNC(=O)c2cnc3ccccc3c2)ccc1OCC(F)(F)F` [Example 13, 1-[5-(2-(3-Quinolinecarboxamido)ethyl)-2-(2,2,2-trifluoroethoxy)phenylsulfonyl]-3-methyl-thiourea] as the compound, how does the melting point read?
The melting point was 75 °C.

For `CNC(=O)NS(=O)(=O)c1cc(CCNC(=O)c2cnc3ccccc3c2)ccc1OCCOCC(F)(F)F` [Example 6, 1-[5(2-(3Quinolinecarboxamido)ethyl)-2-(2(2,2,2-trifluoroethoxy)ethoxy)phenyl-sulfonyl]-3-methyl-urea], which melting point is on record?
The melting point was 128 °C.
